From US11168093B2, “Thienopyridine inhibitors of RIPK2” (Celgene Corporation, priority 2018, dated 2021)

Biological target: RIPK2 enzyme (Homo sapiens (Human), UniProt O43353)
Experiment: RIPK2 inhibition assay, TR-FRET LanthaScreen Tracer 199 screening assay
Format: binding
Details: 5 nM RIPK2 enzyme, Tracer 199 at 50 nM, Eu-anti-His Antibody at 2 nM, 1 hour incubation
Experimental: All data was collected using a standard TR-FRET screening assay: LanthaScreen Tracer 199 at 50 nM, Eu-anti-His Antibody at 2 nM, 5 nM RIPK2 enzyme, and 1× Kinase Reaction Buffer. There was a 1 hour incubation prior to read. TR-FRET signal of the interaction (340Ex/665Em/615Em) was read at room temperature with standard setting. Background was subtracted of wells containing no enzyme. Percent inhibition was based on uninhibited controls log (inhibitor) vs. response. Variable slope equation was used with no constraints: Log Y=Bottom+(Top−Bottom)/(1+10^((Log IC50−X)*Hill Slope)).
The compound numbers correspond to the compound numbers above.

Chain of RIPK2 enzyme (O43353 whole entry): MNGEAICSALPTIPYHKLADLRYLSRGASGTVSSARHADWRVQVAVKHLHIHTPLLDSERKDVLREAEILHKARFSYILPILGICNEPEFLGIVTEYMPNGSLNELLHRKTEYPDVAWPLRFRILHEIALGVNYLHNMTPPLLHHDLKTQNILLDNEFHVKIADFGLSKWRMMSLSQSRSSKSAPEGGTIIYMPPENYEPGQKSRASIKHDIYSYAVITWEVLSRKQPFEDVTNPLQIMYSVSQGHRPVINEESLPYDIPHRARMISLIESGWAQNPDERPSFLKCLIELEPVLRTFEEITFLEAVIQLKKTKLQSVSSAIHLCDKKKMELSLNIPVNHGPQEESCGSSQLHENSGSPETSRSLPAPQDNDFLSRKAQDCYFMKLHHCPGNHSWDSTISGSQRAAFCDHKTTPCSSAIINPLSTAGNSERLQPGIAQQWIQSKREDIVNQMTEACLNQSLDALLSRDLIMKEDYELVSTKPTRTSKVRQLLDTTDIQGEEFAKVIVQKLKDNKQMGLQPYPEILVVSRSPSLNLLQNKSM

| SMILES | IC50 [nM] |
| --- | --- |
| CCN1CCC(c2cc3c(Nc4cc5ncsc5cc4F)ccnc3s2)C12CCOC2 (stereo not drawn) [Example 83, N-(2-(1-ethyl-7-oxa-1-azaspiro[4.4]nonan-4-yl)thieno[2,3-b]pyridin-4-yl)-6-fluorobenzo[d]thiazol-5-amine] | ≥ 50 |
| CC1C(c2cc3c(Nc4ccc5scnc5c4)ccnc3s2)CCN1CCO (stereo not drawn) [Example 31, 2-(3-(4-(benzo[d]thiazol-5-ylamino)thieno[2,3-b]pyridin-2-yl)-2-methylpyrrolidin-1-yl)ethan-1-ol] | ≤ 10 |
| CC1NCCC1c1cc2c(Nc3ccc4scnc4c3)ccnc2s1 (stereo not drawn) [Example 26, N-(2-(2-methylpyrrolidin-3-yl)thieno[2,3-b]pyridin-4-yl)benzo[d]thiazol-5-amine] | ≤ 10 |
| CC1C(c2cc3c(Nc4ccc5scnc5c4)ccnc3s2)=CCN1C (stereo not drawn) [Example 27, N-(2-(1,2-dimethyl-2,5-dihydro-1H-pyrrol-3-yl)thieno[2,3-b]pyridin-4-yl)benzo[d]thiazol-5-amine] | ≤ 10 |
| CN1CC=C(c2cc3c(Nc4ccc5scnc5c4)ccnc3s2)C1(C)C [Example 34, N-(2-(1,2,2-trimethyl-2,5-dihydro-1H-pyrrol-3-yl)thieno[2,3-b]pyridin-4-yl)benzo[d]thiazol-5-amine] | ≤ 10 |
| C[C@@H]1[C@@H](c2cc3c(Nc4ccc5scnc5c4F)ccnc3s2)CCCN1C [Example 58, N-(2-((2R,3S)-1,2-dimethylpiperidin-3-yl)thieno[2,3-b]pyridin-4-yl)-4-fluorobenzo[d]thiazol-5-amine] | ≤ 10 |
| CC(=O)N1CCC=C(c2cc3c(Nc4ccc5scnc5c4)ccnc3s2)C1C (stereo not drawn) [Example 9, 1-(5-(4-(benzo[d]thiazol-5-ylamino)thieno[2,3-b]pyridin-2-yl)-6-methyl-3,6-dihydropyridin-1(2H)-yl)ethan-1-one] | 10 to 20 |
| C[C@H]1NCCC[C@@H]1c1cc2c(Nc3ccc4scnc4c3F)ccnc2s1 [Example 56a, 4-fluoro-N-(2-((2R,3S)-2-methyl-piperidin-3-yl)thieno[2,3-b]pyridin-4-yl)benzo[d]thiazol-5-amine] | ≤ 10 |
| CC1(C)C(c2cc3c(Nc4ccc5scnc5c4F)ccnc3s2)CCN1CCO (stereo not drawn) [Example 92, 2-(3-(4-((4-fluorobenzo[d]thiazol-5-yl)amino)thieno[2,3-b]pyridin-2-yl)-2,2-dimethylpyrrolidin-1-yl)ethan-1-ol] | ≤ 10 |
| CC1C(c2cc3c(Nc4ccc5scnc5c4)ccnc3s2)CCCN1CC(F)F (stereo not drawn) [Example 15, N-(2-(1-(2,2-difluoroethyl)-2-methylpiperidin-3-yl)thieno[2,3-b]pyridin-4-yl)benzo[d]thiazol-5-amine] | 20 to 50 |
| CCN1CCCC(c2cc3c(Nc4ccc5scnc5c4)c(F)cnc3s2)C1C (stereo not drawn) [Example 121, N-(2-(1-ethyl-2-methylpiperidin-3-yl)-5-fluorothieno[2,3-b]pyridin-4-yl)benzo[d]thiazol-5-amine] | ≤ 10 |
| C[C@@H]1NCCC[C@@H]1c1cc2c(Nc3cc4ncsc4cc3F)ccnc2s1 [Example 51b] | 20 to 50 |
| CC1NCCC1c1cc2c(Nc3ccc4scnc4c3F)ccnc2s1 (stereo not drawn) [Example 87, 4-fluoro-N-(2-(2-methylpyrrolidin-3-yl)thieno[2,3-b]pyridin-4-yl)benzo[d]thiazol-5-amine] | ≤ 10 |
| CCN1CCC(c2cc3c(Nc4ccc5scnc5c4F)ccnc3s2)C1C (stereo not drawn) [Example 88, N-(2-(1-ethyl-2-methylpyrrolidin-3-yl)thieno[2,3-b]pyridin-4-yl)-4-fluorobenzo[d]thiazol-5-amine] | ≤ 10 |
| CCN1CCC[C@@H](c2cc3c(Nc4ccc5scnc5c4F)ccnc3s2)[C@H]1C [Example 64, N-(2-((2R,3R)-1-ethyl-2-methylpiperidin-3-yl)thieno[2,3-b]pyridin-4-yl)-4-fluorobenzo[d]thiazol-5-amine] | ≤ 10 |
| COCCN1CCC=C(c2cc3c(Nc4ccc5scnc5c4)ccnc3s2)[C@@H]1C [Example 12b, N-(2-(1-(2-methoxyethyl)-2-methyl-1,2,5,6-tetrahydropyridin-3-yl)thieno[2,3-b]pyridin-4-yl)benzo[d]thiazol-5-amine] | ≤ 10 |
| CCN1CCC(c2cc3c(Nc4cc5ncsc5cc4F)ccnc3s2)C12CCOCC2 (stereo not drawn) [Example 86, N-(2-(1-ethyl-8-oxa-1-azaspiro[4.5]decan-4-yl)thieno[2,3-b]pyridin-4-yl)-6-fluorobenzo[d]thiazol-5-amine] | ≥ 50 |
| CCN1CCC(c2cc3c(Nc4ccc5scnc5c4)ccnc3s2)C12CCOC2 (stereo not drawn) [Example 45, N-(2-(1-ethyl-7-oxa-1-azaspiro[4.4]nonan-4-yl)thieno[2,3-b]pyridin-4-yl)benzo[d]thiazol-5-amine] | 10 to 20 |
| CCN1CCC[C@H](c2cc3c(Nc4ccc5scnc5c4F)ccnc3s2)[C@@H]1C [Example 65, N-(2-((2S,3S)-1-ethyl-2-methylpiperidin-3-yl)thieno[2,3-b]pyridin-4-yl)-4-fluorobenzo[d]thiazol-5-amine] | ≤ 10 |
| CN1CCC=C(c2cc3c(Nc4ccc5scnc5c4)ccnc3s2)CC1 [Example 106, N-(2-(1-methyl-2,3,6,7-tetrahydro-1H-azepin-4-yl)thieno[2,3-b]pyridin-4-yl)benzo[d]thiazol-5-amine] | ≤ 10 |

The remaining lines, values ahead:

| IC50 [nM] | SMILES |
| --- | --- |
| ≤ 10 | C[C@@H]1NCCC=C1c1cc2c(Nc3c(F)cc4scnc4c3F)ccnc2s1 [Example 66b, (S)-4,6-difluoro-N-(2-(2-methyl-1,2,5,6-tetrahydropyridin-3-yl)thieno[2,3-b]pyridin-4-yl)-benzo[d]thiazol-5-amine] |
| ≤ 10 | CC1C(c2cc3c(Nc4ccc5scnc5c4)ccnc3s2)CCCCN1C (stereo not drawn) [Example 116a, N-(2-(1,2-dimethylazepan-3-yl)thieno[2,3-b]pyridin-4-yl)benzo[d]thiazol-5-amine] |
| 20 to 50 | CC1C(c2cc3c(Nc4cc5ncsc5cc4F)c(F)cnc3s2)CCCN1C (single isomer, unassigned) [Example 123d, N-(2-(1,2-dimethylpiperidin-3-yl)-5-fluorothieno[2,3-b]pyridin-4-yl)-6-fluorobenzo[d]thiazol-5-amine] |
| 10 to 20 | CC1NCCCCC1c1cc2c(Nc3c(F)cc4scnc4c3F)ccnc2s1 (single isomer, unassigned) [Example 118d, 4,6-difluoro-N-(2-(2-methylazepan-3-yl)thieno[2,3-b]pyridin-4-yl)benzo[d]thiazol-5-amine] |
| 10 to 20 | CC1NCCCC1c1cc2c(Nc3c(F)cc4scnc4c3F)c(F)cnc2s1 (single isomer, unassigned) [Example 126d, 4,6-difluoro-N-(5-fluoro-2-(2-methylpiperidin-3-yl)thieno[2,3-b]pyridin-4-yl)benzo[d]thiazol-5-amine] |
| ≥ 50 | CC1C(c2cc3c(Nc4ccc5scnc5c4)c(F)cnc3s2)CCCN1C (single isomer, unassigned) [Example 120d, N-(2-(1,2-dimethylpiperidin-3-yl)-5-fluorothieno[2,3-b]pyridin-4-yl)benzo[d]-thiazol-5-amine] |
| ≤ 10 | CCN1CCC=C(c2cc3c(Nc4c(F)cc5scnc5c4F)ccnc3s2)[C@H]1C [Example 72a, (R)—N-(2-(1-ethyl-2-methyl-1,2,5,6-tetrahydropyridin-3-yl)thieno[2,3-b]-pyridin-4-yl)-4,6-difluorobenzo[d]thiazol-5-amine] |
| ≤ 10 | CC1NCCCCC1c1cc2c(Nc3c(F)cc4scnc4c3F)ccnc2s1 (stereo not drawn) [Example 118b, 4,6-difluoro-N-(2-(2-methylazepan-3-yl)thieno[2,3-b]pyridin-4-yl)benzo[d]thiazol-5-amine] |
| ≤ 10 | CCN1CCC=C(c2cc3c(Nc4c(F)cc5scnc5c4F)ccnc3s2)[C@@H]1C [Example 72b, (S)—N-(2-(1-ethyl-2-methyl-1,2,5,6-tetrahydropyridin-3-yl)thieno[2,3-b]pyridin-4-yl)-4,6-difluorobenzo[d]thiazol-5-amine] |
| 10 to 20 | CC1C(c2cc3c(Nc4c(F)cc5scnc5c4F)c(F)cnc3s2)CCCN1C (single isomer, unassigned) [Example 127d] |
| ≥ 50 | CC1NCCCC1c1cc2c(Nc3ccc4scnc4c3)c(F)cnc2s1 (single isomer, unassigned) [Example 119d, N-(5-fluoro-2-(2-methylpiperidin-3-yl)thieno[2,3-b]pyridin-4-yl)benzo[d]thiazol-5-amine] |
| ≤ 10 | CC1NCCCC1c1cc2c(Nc3ccc4scnc4c3)c(F)cnc2s1 (single isomer, unassigned) [Example 119b, N-(5-fluoro-2-(2-methylpiperidin-3-yl)thieno[2,3-b]pyridin-4-yl)benzo[d]thiazol-5-amine] |
| ≤ 10 | CC1C(c2cc3c(Nc4ccc5scnc5c4F)c(F)cnc3s2)CCCN1C (single isomer, unassigned) [Example 125c, N-(2-(1,2-dimethylpiperidin-3-yl)-5-fluorothieno[2,3-b]pyridin-4-yl)-4-fluorobenzo[d]thiazol-5-amine] |
| ≤ 10 | C[C@H]1NCCC=C1c1cc2c(Nc3c(F)cc4scnc4c3F)ccnc2s1 [Example 66a, (R)-4,6-difluoro-N-(2-(2-methyl-1,2,5,6-tetrahydropyridin-3-yl)thieno[2,3-b]pyridin-4-yl)benzo[d]thiazol-5-amine] |
| ≥ 50 | CC1NCCCC1c1cc2c(Nc3ccc4scnc4c3F)c(F)cnc2s1 (single isomer, unassigned) [Example 124a, 4-fluoro-N-(5-fluoro-2-(2-methylpiperidin-3-yl)thieno[2,3-b]pyridin-4-yl)benzo[d]thiazol-5-amine] |
| ≤ 10 | CCN1CCC[C@@H](c2cc3c(Nc4c(F)cc5scnc5c4F)ccnc3s2)[C@H]1C [Example 73b, N-[2-((2R,3R)1-ethyl-2-methyl-3-piperidyl)thieno[2,3-b]pyridin-4-yl]-4,6-difluoro-1,3-benzothiazol-5-amine] |
